Measurements taken from patent US7090834B1, “Vascular endothelial cell growth factor variants and uses thereof” (Genentech, Inc., priority 1999, dated 2006).

How the values were obtained:
[1] = tested on: ERK1 and ERK2 in HUVEC cells; experiment: Activation of MAP kinases, ERK1/ERK2 phosphorylation Western blot; format: cell-based, human; settings: 50 ng/ml or 10 ng/ml, 5 minutes, FIG. 12A
Procedure: Passage 4–7 HUVEC cells (Cell Systems, Kirkland, Wash.) were grown in Cell System's complete medium (AZ0-500) with 10% fetal calf serum and growth factors on gelatin-coated dishes and made quiescent by 14 hour starvation in 0.2% serum. […] The HUVEC cells were then lysed in 0.5–1 ml RIPA buffer containing 0.1 mM sodium orthovanadate, 5 mM para-nitrophenylphosphate, 10 mM sodium fluoride, 0.5 micromolar okadaic acid and a protease inhibitor cocktail (Roche MB 1836145). Western blot analysis was then conducted, probing for phosphorylated ERK1 or ERK2 using anti-phospho ERK antiserum (Promega).

[2] = tested on: p38 stress-activated MAP kinase in HUVEC cells; experiment: p38 MAP kinase phosphorylation Western blot; format: cell-based, human; settings: 50 ng/ml or 10 ng/ml, 5 minutes, FIG. 12B
Procedure: VEGF has previously been reported to stimulate the stress-activated, p38 MAP kinase [Rousseau et al., Oncogene, 15:2169–2177 (1997); Yu et al., J. Cell. Phys., 178:235–246 (1999)].
Passage 4–7 HUVEC cells (Cell Systems, Kirkland, Wash.) were grown in Cell System's complete medium (AZ0-500) with 10% fetal calf serum and growth factors on gelatin-coated dishes and made quiescent by 14 hour starvation in 0.2% serum. […] The cells were then lysed in 0.5–1 ml RIPA buffer containing 0.1 mM sodium orthovanadate, 5 mM para-nitrophenylphosphate, 10 mM sodium fluoride, 0.5 micromolar okadaic acid and a protease inhibitor cocktail (Roche MB 1836145). The phosphorylation state of p38 stress-activated MAP kinase was assessed with an anti-phospho p38 specific antiserum (NEB).

PLC-gamma in HUVEC cells = experiment: PLC-gamma tyrosine phosphorylation after immunoprecipitation; format: cell-based, human; settings: 20 ng/ml, 5 minutes, FIG. 13A
Procedure: In order to determine which VEGF receptor(s) are involved in PLC-gamma activation in primary endothelial cells, HUVEC cells were treated with native VEGF or VEGF receptor-selective variants and PLC-gamma phosphorylation was assessed after immunoprecipitation.
Passage 4–7 HUVEC cells (Cell Systems, Kirkland, Wash.) were grown in Cell System's complete medium (AZ0-500) with 10% fetal calf serum and growth factors on gelatin-coated dishes and made quiescent by 14 hour starvation in 0.2% serum. […] The cells were then lysed in 0.5–1 ml RIPA buffer containing 0.1 mM sodium orthovanadate, 5 mM para-nitrophenylphosphate, 10 mM sodium fluoride, 0.5 micromolar okadaic acid and a protease inhibitor cocktail (Roche MB 1836145). PLC-gamma was then immunoprecipitated from whole cell lysates using monoclonal antibodies (Upstate Biotechnology) and analyzed for tyrosine phosphorylation (FIG. 13A) or lysates were immunoprecipitated with monoclonal antibodies against p85 PI 3′-kinase (purchased from Transduction Labs (P13020) and Neomarkers (MS424-P)) and tested for phosphotyrosine using phosphotyrosine antibodies PY20 or E120H (Transduction Labs) (FIG. 13B). Immunoprecipitation was conducted as follows. Protein A/G beads (Pierce) were blocked for nonspecific protein binding in 50 mM HEPES pH 7.2, 0.1% TX-100, 150 mM NaCl and 1 mg/ml ovalbumin for 30 minutes. Antibodies were precoupled in the same buffer for 1 hour at 4° C. with head over end rotation and beads were washed 3 times in lysis buffer. Beads were added to the lysates and rotated overnight. Beads were washed sequentially in 50 mM Tris pH 7.6, 150 mM NaCl, 1% TX-100, 1 mM CaCl2; 50 mM Tris pH 7.6, 500 mM NaCl, 0.1% TX-100, 1 mM CaCl2 and 50 mM Tris pH 7.6, 150 mM NaCl, 0.05% TX-100, 1 mM CaCl2. Beads were then resuspended in 2× sample buffer and boiled. Supernatants were applied directly to 4–12% Tris-Glycine gradient gels (Novex).

HUVEC cells = experiment: HUVEC migration, modified Boyden chamber assay; format: cell-based, human; settings: 18 hour assay, FIG. 14A
Procedure: One of the central aspects of VEGF action on endothelial cells is its ability to act as a chemoattractant and stimulate the migration of endothelial cells. HUVEC cell migration was analyzed in a modified Boyden chamber assay as follows.
Falcon 8.0 micron filter inserts (Falcon 3097) were coated with type 1 collagen (VITROGEN, COHESION). HUVEC (obtained from Cell Systems, <passage 8) were grown in Cell Systems complete media (4ZO-500) with 10% FCS. Cells were trypsinized and transferred to EBM (Endothelial basal media, Clonetics) with 0.1% BSA for the assay. Cells were plated at 5×10^4 per upper chamber. […] The assay was routinely an 18 hour assay at 37° C. For the LY294002 inhibitor experiments, cells were allowed to adhere for 30 minutes prior to addition of the inhibitor. 20 minutes after inhibitor addition, VEGF was added to the bottom well and the assay was allowed to proceed for only 4 hours to avoid the occurrence of apoptosis associated with the treatment of these primary cells with LY294002 (purchased from Biomol).
Cells were removed from the upper side of the membrane by scraping with a polyurethane swab and then the remaining cells on the bottom side of the membrane were fixed with methanol. Cells were stained with Yo-Pro Iodide nuclear stain (Molecular Probes) and counted under low power fluorescence using an Image-Pro cell recognition program.

corneal angiogenesis = experiment: Corneal pocket angiogenesis assay; format: in vivo, Sprague-Dawley rats; settings: rat, pellet with 200 ng growth factor, day 6, FIGS. 15A and 15B
Procedure: Assays were performed as described by Polyerini et al., Methods Enzymol., 198:440–450 (1991) with the following modifications. Sprague-Dawley rats were anesthetized using a gas (isoflurane)/injectable ketamine (80 mg/kg)/xylazine (15 mg/kg) combination. The eyes were gently proptosed and secured in place using nontraumatic forceps. With a #15 blade, a 1.5 mm incision was made slightly below the center of the cornea. Using a micro spatula (ST80017, ASSI), the incision was carefully blunt-dissected through the stroma toward the outer canthus of the eye. […] After surgery, the eyes were coated with gentamicin ointment. At day 6, the animals were injected with high molecular weight FITC-dextran and euthanized to allow for visualization of the vasculature. Corneal whole mounts were made of the enucleated eyes and measurements of the neovascular area completed using computer-assisted image analysis (Image-Pro Plus).

KDR receptor = experiment: RIA assay, binding to KDR receptor; settings: compared to native VEGF, FIG. 8A
KDR receptor, sequence (P35968 20-327 limits assumed): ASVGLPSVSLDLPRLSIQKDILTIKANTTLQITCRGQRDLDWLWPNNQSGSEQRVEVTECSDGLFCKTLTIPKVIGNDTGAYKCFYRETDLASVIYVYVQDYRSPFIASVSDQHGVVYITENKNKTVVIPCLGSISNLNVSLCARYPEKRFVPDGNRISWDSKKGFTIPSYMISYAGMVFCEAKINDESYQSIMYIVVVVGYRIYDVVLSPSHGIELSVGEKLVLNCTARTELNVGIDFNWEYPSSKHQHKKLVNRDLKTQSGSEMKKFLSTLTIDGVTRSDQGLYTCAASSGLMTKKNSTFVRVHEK
Procedure: (§1) Various assays were conducted to examine the properties and biological activities of the I43A/I46A/Q79A/I83A Flt-sel variant. For example, quantitative binding measurements were carried out using a soluble radio-immuno receptor-binding assay (RIA), as described in Example 6 above.

Flt-1 receptor = experiment: RIA assay, binding to FLT-1 receptor; settings: FIG. 8B
Flt-1 receptor, sequence (P17948 27-331 limits assumed): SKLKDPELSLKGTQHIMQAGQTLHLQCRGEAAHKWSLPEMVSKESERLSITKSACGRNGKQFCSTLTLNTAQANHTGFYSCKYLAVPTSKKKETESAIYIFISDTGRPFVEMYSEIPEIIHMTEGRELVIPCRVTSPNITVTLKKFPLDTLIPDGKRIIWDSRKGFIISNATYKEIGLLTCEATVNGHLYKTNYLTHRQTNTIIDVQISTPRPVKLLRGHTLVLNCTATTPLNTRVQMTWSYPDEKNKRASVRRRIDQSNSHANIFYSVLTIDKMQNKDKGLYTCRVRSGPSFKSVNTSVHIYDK
Procedure: as §1

[3] = biological target: T1, KDR transfected NIH3T3 cells (Homo sapiens, UniProt P35968); experiment: Receptor-transfected cell binding assay, KDR; settings: displacement of 125I-VEGF, 4° C., three hours, FIG. 5
T1 construct: expressed in transfected cells; host or cells: NIH3T3 cells
T1 sequence (P35968 20-1356): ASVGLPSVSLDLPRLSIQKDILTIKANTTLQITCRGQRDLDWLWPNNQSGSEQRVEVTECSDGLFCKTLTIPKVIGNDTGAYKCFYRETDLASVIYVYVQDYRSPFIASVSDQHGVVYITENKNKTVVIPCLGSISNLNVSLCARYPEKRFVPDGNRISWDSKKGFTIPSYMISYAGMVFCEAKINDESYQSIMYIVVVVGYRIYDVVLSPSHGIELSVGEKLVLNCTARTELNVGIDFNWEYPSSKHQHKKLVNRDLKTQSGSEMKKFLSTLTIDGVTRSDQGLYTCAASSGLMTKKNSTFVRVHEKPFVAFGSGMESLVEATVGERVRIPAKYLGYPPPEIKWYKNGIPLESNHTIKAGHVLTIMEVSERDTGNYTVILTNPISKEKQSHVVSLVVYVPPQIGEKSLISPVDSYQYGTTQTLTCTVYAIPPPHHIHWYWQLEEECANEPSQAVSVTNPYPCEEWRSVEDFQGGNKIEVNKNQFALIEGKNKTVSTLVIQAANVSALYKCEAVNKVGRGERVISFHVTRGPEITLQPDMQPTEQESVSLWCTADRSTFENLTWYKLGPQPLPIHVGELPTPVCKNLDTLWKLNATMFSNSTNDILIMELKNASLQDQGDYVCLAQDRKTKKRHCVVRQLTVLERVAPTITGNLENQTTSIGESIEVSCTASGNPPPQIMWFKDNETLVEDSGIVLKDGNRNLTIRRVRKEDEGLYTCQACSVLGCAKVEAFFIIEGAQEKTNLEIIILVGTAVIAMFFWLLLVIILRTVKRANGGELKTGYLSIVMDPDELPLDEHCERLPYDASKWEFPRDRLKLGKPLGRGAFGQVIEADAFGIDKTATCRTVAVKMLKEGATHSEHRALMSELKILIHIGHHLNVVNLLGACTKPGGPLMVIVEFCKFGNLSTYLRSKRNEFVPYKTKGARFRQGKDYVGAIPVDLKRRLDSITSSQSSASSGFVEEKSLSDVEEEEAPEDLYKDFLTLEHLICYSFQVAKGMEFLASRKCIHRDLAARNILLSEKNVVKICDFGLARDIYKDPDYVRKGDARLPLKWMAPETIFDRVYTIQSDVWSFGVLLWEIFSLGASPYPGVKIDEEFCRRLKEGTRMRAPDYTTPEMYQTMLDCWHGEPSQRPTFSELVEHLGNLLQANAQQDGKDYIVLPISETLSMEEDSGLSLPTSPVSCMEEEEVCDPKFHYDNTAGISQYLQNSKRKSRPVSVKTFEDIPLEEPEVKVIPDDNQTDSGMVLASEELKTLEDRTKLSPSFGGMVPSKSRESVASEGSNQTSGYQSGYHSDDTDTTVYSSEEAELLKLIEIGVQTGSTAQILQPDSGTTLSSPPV
Procedure: (§2) The assay is described in detail in Example 7. Each point represents the average of duplicate determinations, and errors are estimated to be less than 15% of the values.
(§3) KDR or Flt-1 transfected NIH3T3 cells were prepared as described by Fuh et al., J. Biol. Chem., 273:11187–11204 (1998). The transfected cells were maintained in F12 media supplemented with 10% FBS and 400 ug/ml G418 (GibcoBRL). For the binding assays, the cells were plated in 12-wells plates at 1×10^6/well to reach confluency next day. The cells were then washed and blocked in Hank's buffered saline (HBS) with 1% BSA for one hour before adding ^125I-VEGF (1–109) (prepared by standard chloramine-T methods) and increasing concentrations of unlabeled VEGF variants. 50 pM and 10 pM of labeled VEGF (1–109) was used for KDR and Flt-1 cell binding, respectively. The plates were incubated at 4° C. for three hours and then washed two times with HBS with 0.5% BSA. The bound, labeled VEGF was collected by solubilizing the washed cells with 1N NaOH, and then counted in a gamma-counter (Isodata, ICN).

[4] = biological target: T2, Flt-1 transfected NIH3T3 cells (Homo sapiens, UniProt P17948); experiment: Receptor-transfected cell binding assay, Flt-1; settings: FIG. 6
T2 construct: expressed in transfected cells; host or cells: NIH3T3 cells
T2 sequence (P17948 27-1338): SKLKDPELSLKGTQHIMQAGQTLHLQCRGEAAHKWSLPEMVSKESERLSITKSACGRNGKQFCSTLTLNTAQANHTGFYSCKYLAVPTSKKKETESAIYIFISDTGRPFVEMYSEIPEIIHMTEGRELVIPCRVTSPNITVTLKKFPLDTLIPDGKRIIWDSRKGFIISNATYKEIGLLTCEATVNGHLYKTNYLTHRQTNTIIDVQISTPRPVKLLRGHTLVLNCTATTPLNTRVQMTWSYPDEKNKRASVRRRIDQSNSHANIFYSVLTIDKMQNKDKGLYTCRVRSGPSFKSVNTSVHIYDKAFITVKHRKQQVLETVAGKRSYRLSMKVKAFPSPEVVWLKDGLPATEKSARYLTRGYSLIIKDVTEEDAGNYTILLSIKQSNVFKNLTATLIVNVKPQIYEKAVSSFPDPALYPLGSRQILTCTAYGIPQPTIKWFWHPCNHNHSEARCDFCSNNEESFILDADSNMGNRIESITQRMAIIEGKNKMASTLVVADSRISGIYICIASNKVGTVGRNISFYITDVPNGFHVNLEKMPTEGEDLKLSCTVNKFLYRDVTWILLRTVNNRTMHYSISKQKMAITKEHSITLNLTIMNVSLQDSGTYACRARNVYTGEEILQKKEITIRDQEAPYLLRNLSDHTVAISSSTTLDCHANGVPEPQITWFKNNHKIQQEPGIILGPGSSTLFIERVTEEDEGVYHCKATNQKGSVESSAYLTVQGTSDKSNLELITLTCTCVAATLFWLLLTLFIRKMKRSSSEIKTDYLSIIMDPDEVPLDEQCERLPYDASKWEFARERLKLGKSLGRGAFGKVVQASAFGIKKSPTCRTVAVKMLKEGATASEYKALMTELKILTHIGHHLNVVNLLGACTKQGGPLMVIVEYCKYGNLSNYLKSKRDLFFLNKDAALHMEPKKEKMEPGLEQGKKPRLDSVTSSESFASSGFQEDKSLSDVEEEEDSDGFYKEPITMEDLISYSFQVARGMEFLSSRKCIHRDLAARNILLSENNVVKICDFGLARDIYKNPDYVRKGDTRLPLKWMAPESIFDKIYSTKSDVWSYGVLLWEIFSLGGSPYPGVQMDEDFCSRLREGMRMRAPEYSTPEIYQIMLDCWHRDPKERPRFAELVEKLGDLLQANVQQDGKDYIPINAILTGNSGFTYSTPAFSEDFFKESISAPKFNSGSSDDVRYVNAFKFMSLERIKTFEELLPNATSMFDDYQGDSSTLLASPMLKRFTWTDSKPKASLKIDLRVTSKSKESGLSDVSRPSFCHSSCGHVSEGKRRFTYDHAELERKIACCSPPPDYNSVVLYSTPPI
Procedure: as §2, §3

[5] = tested on: MMP-9 secretion by human aorta smooth muscle cells (ASMC); experiment: Matrix metalloprotease 9 assay (gelatin zymography); format: cell-based; settings: 40 ng/ml, 24 hours, compared to native VEGF(1–109) or PlGF, FIG. 11
Procedure: An assay that measures the secretion of matrix metalloprotease 9 following activation of Flt-1 expressed on human smooth aorta muscle cells was conducted (Wang and Keiser, Circ. Res., 83:832–840 (1998)). Human aorta smooth muscle cells (ASMC) (Clonetics) were maintained in SM2 media (Clonetics) at 37° C. in 5% CO2 and 95% ambient air in the presence of 10% fetal bovine serum in 6-well polystyrene plates (Becton-Dickinson). When, cells attained 90% confluence, they were growth-arrested for 24 hours in serum-free medium containing 0.2% bovine serum albumin (BSA). […] After electrophoresis, proteins were renatured by incubation of the gels for 30 minutes at room temperature in Renaturing Buffer and in Developing Buffer (Novex) for overnight at 37° C. The gels were stained with 0.25% Coomassie Brilliant Blue (Sigma). Gelatinase activity was identified as lightly stained or clear bands following destaining.
Shown is a representative zymogram of one of two independent experiments. Fold change represents the relative band density of the VEGF(1–109)-, VEGF(1–109) variants- or PlGF-treated groups versus the vehicle-treated (PBS) control.

Molecule	phosphorylation of ERK1 and ERK2 [1]	p38 phosphorylation [2]	PLC-gamma phosphorylation (PLC-gamma in HUVEC cells)	promotion of HUVEC cell migration (HUVEC cells)	induction of corneal angiogenesis (corneal angiogenesis)	fold reduced KDR-binding affinity (RIA) (KDR receptor)	affinity for Flt-1 compared to native protein (RIA) (Flt-1 receptor)	binding to KDR-transfected NIH3T3 cells [3]	binding to Flt-1-transfected cells [4]	stimulation of MMP-9 secretion [5]
LK-VRB-2f: full length 1–165 VEGF variant with D63S/G65M/L66R	triggered phosphorylation of ERK1 and ERK2	able to stimulate p38 phosphorylation	able to stimulate PLC-gamma phosphorylation to a similar extent	as effective as the native VEGF	as efficient as native VEGF in inducing corneal angiogenesis					
Flt-sel: VEGF (1–109) variant with alanine substitutions at Ile 43, Ile 46, Gln 79 and Ile 83; Flt-1 selective (protein) APMAEGGGQNHHEVVKFMDVYQRSYCHPIETLVDIFQEYPDEAEYAFKPSCVPLMRCGGCCNDEGLECVPTEESNITMAIMRAKPHQGQHIGEMSFLQHNKCECRPKKD						at least 470 fold	essentially identical to that of the native protein	no detectable binding	slightly improved binding	fully active
